{
  "source": "PubChem BioAssay AID2060511",
  "about": "(Molecular Pharmacology Branch, DTP, NCI, 2025)",
  "test_system": "422866-222-R5-J1-PDC spheroids with HUVEC/MSC, viability",
  "experiment": "Anticancer human tumor 422866-222-R5-J1-PDC patient-derived pancreatic adenocarcinoma cell line growth inhibition [GQUAD]",
  "details": "for pIC50: curve of first compound; for viability, T/C: stronger effect = lower value",
  "from_the_text": "DNA G-quadruplex Stabilizer Agents in Combinations in Complex Spheroids\nA high-throughput screen of multi-cell type tumor spheroids was designed to identify active combinations of DNA G-quadruplex stabilizer agents and targeted small molecules. Complex spheroids include a stromal component modeled by human endothelial cells (HUVEC) and fibroblasts modeled by human mesenchymal stem cells (MSCs). The concentration ranges selected for each drug and investigational agent were based upon clinically achievable concentrations if the clinical Cmax of the agent was known.\nCompounds. The drugs and investigational agents: pidnarulex (CX-5461; NSC782164), APTO-253 (NSC789042), BRACO-19 (NSC847499), peposertib (NSC802822), ceralasertib (NSC780249), elimusertib (NSC800525), camonsertib (NSC841442), AZD-1390 (NSC803789), olaparib (NSC753686), talazoparib (NSC767125), ART-558 (NSC835418), sotorasib (NSC818433), MRTX-1133 (NSC836407), SN-38 (NSC673596), topotecan (NSC609699), etoposide (NSC141540), doxorubicin (NSC123127), gemcitabine (NSC613327), 5-fluorouracil (NSC19893), paclitaxel (NSC125973), vemurafenib (NSC761431), panobinostat (NSC761190), R-306465 (JNJ-16241199; NSC773264), adavosertib (NSC754352), TP-3654 (NSC805149), carboplatin (NSC241240), KSQ-4279 (NSC840948), and staurosporine (NSC755774) were obtained from the National Cancer Institute (NCI) Developmental Therapeutics Program Chemical Repository (34). The FDA-approved anticancer drug set is available from the NCI Developmental Therapeutics Program. […] The stock solutions were prepared in dimethyl sulfoxide (DMSO, Sigma-Aldrich, St. Louis, MO, cat. D2650) at 800-fold the tested concentration and stored at -70 degrees C prior to their use. All drugs and investigational agents were tested over a range starting from a high concentration at or near the clinical Cmax and decreasing in half-log increments. If the clinical Cmax for an agent had not been determined, the highest concentration tested was 10 microM.\n2.3 Cell Culture. All cells were maintained in an incubator at 37 degrees C and 5% CO2 with 95% humidity. The PDC lines were cultured according to standard operating procedures established by the NCI PDMR. All PDCs were thawed and cultured in Matrigel-coated flasks prepared with a working solution of 1X Ham's F-12 nutrient mix, without supplementation (Invitrogen, cat. 11765054), 100 U/mL penicillin-streptomycin (Invitrogen, cat. 15140122), and 2.5% Matrigel (Corning Inc., cat. 354248) for the first three passages. The 857933-349-R-J2-PDC line was cultured in 6C/Colon 1B media, which includes advanced DMEM/F-12 (Thermo Fisher Scientific, cat. 12634028), 10 mM HEPES (Thermo Fisher Scientific, cat. 15630080), 1X GlutaMAX supplement (Thermo Fisher Scientific, cat. 35050061), 0.1 mg/mL primocin (InvivoGen, cat. ant-pm-2), 10% defined fetal bovine serum, heat inactivated (HyClone Laboratories Inc., cat. SH30070.03HI), 50% L-WRN conditioned media (ATCC, cat. CRL-3276), 1.25 mM N-Acetyl-L-cysteine (Sigma-Aldrich, cat. A9165), 10 mM nicotinamide (Sigma-Aldrich, cat. N0636), 1X B-27 supplement (Thermo Fisher Scientific, cat. 17504044), 1X N-2 supplement (Thermo Fisher Scientific, cat. 17502048), 10 microM Y-27632 dihydrochloride (Tocris Bioscience, cat. 1254), and 50 ng/mL human EGF recombinant protein (Thermo Fisher Scientific, cat. PHG0311). The 485176-168-R4-J1-PDC line was cultured in Panc media, which includes all 6C/Colon 1B media components plus 100 ng/mL human FGF-10 (Thermo Fisher Scientific, cat. 100-26), 500 nM SB-431542 (Selleckchem, cat. S1067), and gastrin (Tocris, cat. 3006).\n[…]",
  "note": "pIC50: −log10 of the molar value.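 Further: spheroids exposed to compounds for seven days before reading.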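 Wherever viability, T/C is given: percent viability relative to DMSO vehicle control taken as 100%.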",
  "data": [
    {"smiles": "CCCS(=O)(=O)Nc1ccc(F)c(C(=O)c2c[nH]c3ncc(-c4ccc(Cl)cc4)cc23)c1F", "note": "+ Cc1cnc(CNC(=O)c2c(=O)c3ccc(N4CCCN(C)CC4)nc3n3c2sc2ccccc23)cn1", "values": [
      {"measurement": "pIC50", "setting": "second compound 0.0316 µM", "result": "< 5.00"},
      {"measurement": "pIC50", "setting": "second compound 0.1 µM", "result": "< 5.00"},
      {"measurement": "pIC50", "setting": "second compound 0.316 µM", "result": "< 5.00"},
      {"measurement": "pIC50", "setting": "second compound 1 µM", "result": "< 5.00"},
      {"measurement": "pIC50", "setting": "second compound 3.16 µM", "result": "< 5.00"},
      {"measurement": "pIC50", "setting": "second compound 10 µM", "result": "< 5.00"},
      {"measurement": "viability, T/C", "setting": "second compound 0.0316 µM, first compound 0.0316 µM", "result": 96.8, "unit": "%"},
      {"measurement": "viability, T/C", "setting": "second compound 0.0316 µM, first compound 0.1 µM", "result": 89.2, "unit": "%"},
      {"measurement": "viability, T/C", "setting": "second compound 0.0316 µM, first compound 0.316 µM", "result": 117, "unit": "%"},
      {"measurement": "viability, T/C", "setting": "second compound 0.0316 µM, first compound 1 µM", "result": 109, "unit": "%"},
      {"measurement": "viability, T/C", "setting": "second compound 0.0316 µM, first compound 3.16 µM", "result": 145, "unit": "%"},
      {"measurement": "viability, T/C", "setting": "second compound 0.0316 µM, first compound 10 µM", "result": 54.9, "unit": "%"},
      {"measurement": "viability, T/C", "setting": "second compound 0.1 µM, first compound 0.0316 µM", "result": 93.9, "unit": "%"},
      {"measurement": "viability, T/C", "setting": "second compound 0.1 µM, first compound 0.1 µM", "result": 87.3, "unit": "%"},
      {"measurement": "viability, T/C", "setting": "second compound 0.1 µM, first compound 0.316 µM", "result": 115, "unit": "%"},
      {"measurement": "viability, T/C", "setting": "second compound 0.1 µM, first compound 1 µM", "result": 92, "unit": "%"},
      {"measurement": "viability, T/C", "setting": "second compound 0.1 µM, first compound 3.16 µM", "result": 109, "unit": "%"},
      {"measurement": "viability, T/C", "setting": "second compound 0.1 µM, first compound 10 µM", "result": 84.7, "unit": "%"},
      {"measurement": "viability, T/C", "setting": "second compound 0.316 µM, first compound 0.0316 µM", "result": 78.6, "unit": "%"},
      {"measurement": "viability, T/C", "setting": "second compound 0.316 µM, first compound 0.1 µM", "result": 90.4, "unit": "%"},
      {"measurement": "viability, T/C", "setting": "second compound 0.316 µM, first compound 0.316 µM", "result": 90, "unit": "%"},
      {"measurement": "viability, T/C", "setting": "second compound 0.316 µM, first compound 1 µM", "result": 115, "unit": "%"},
      {"measurement": "viability, T/C", "setting": "second compound 0.316 µM, first compound 3.16 µM", "result": 102, "unit": "%"},
      {"measurement": "viability, T/C", "setting": "second compound 0.316 µM, first compound 10 µM", "result": 86.6, "unit": "%"},
      {"measurement": "viability, T/C", "setting": "second compound 1 µM, first compound 0.0316 µM", "result": 73.2, "unit": "%"},
      {"measurement": "viability, T/C", "setting": "second compound 1 µM, first compound 0.1 µM", "result": 80.7, "unit": "%"},
      {"measurement": "viability, T/C", "setting": "second compound 1 µM, first compound 0.316 µM", "result": 87.2, "unit": "%"},
      {"measurement": "viability, T/C", "setting": "second compound 1 µM, first compound 1 µM", "result": 110, "unit": "%"},
      {"measurement": "viability, T/C", "setting": "second compound 1 µM, first compound 3.16 µM", "result": 111, "unit": "%"},
      {"measurement": "viability, T/C", "setting": "second compound 1 µM, first compound 10 µM", "result": 86, "unit": "%"},
      {"measurement": "viability, T/C", "setting": "second compound 3.16 µM, first compound 0.0316 µM", "result": 72.9, "unit": "%"},
      {"measurement": "viability, T/C", "setting": "second compound 3.16 µM, first compound 0.1 µM", "result": 80.9, "unit": "%"},
      {"measurement": "viability, T/C", "setting": "second compound 3.16 µM, first compound 0.316 µM", "result": 85.5, "unit": "%"},
      {"measurement": "viability, T/C", "setting": "second compound 3.16 µM, first compound 1 µM", "result": 93.7, "unit": "%"},
      {"measurement": "viability, T/C", "setting": "second compound 3.16 µM, first compound 3.16 µM", "result": 95.1, "unit": "%"},
      {"measurement": "viability, T/C", "setting": "second compound 3.16 µM, first compound 10 µM", "result": 88.7, "unit": "%"},
      {"measurement": "viability, T/C", "setting": "second compound 10 µM, first compound 0.0316 µM", "result": 69.2, "unit": "%"},
      {"measurement": "viability, T/C", "setting": "second compound 10 µM, first compound 0.1 µM", "result": 76.2, "unit": "%"},
      {"measurement": "viability, T/C", "setting": "second compound 10 µM, first compound 0.316 µM", "result": 109, "unit": "%"},
      {"measurement": "viability, T/C", "setting": "second compound 10 µM, first compound 1 µM", "result": 86.8, "unit": "%"},
      {"measurement": "viability, T/C", "setting": "second compound 10 µM, first compound 3.16 µM", "result": 96, "unit": "%"},
      {"measurement": "viability, T/C", "setting": "second compound 10 µM, first compound 10 µM", "result": 94.2, "unit": "%"}
    ]}
  ]
}
